Results reported in US20260078158A1, “COMPOSITIONS COMPRISING CXCL10-DERIVED PEPTIDES AND METHODS OF USE THEREOF” (priority 2022, published 2026).
In brackets after ≈: the same amount, converted by molar mass. Like-named read-outs stand apart in the source and are kept apart here. Where a SMILES comes first, the peptide text is derived from it. [ ]: non-standard residue; d: D form.

How the values were obtained:
[1] = tested on: E. cloacae species complex; assay: microbe, parasite or virus in culture; format: cell-based, Enterobacter cloacae; conditions: for MIC: Enterobacter cloacae, read-out: MIC; for MIC50 fold change: Enterobacter spp. (5 isolates)
Pseudomonas aeruginosa = assay: microbe, parasite or virus in culture; format: cell-based; conditions: for MIC50 fold change: Pseudomonas aeruginosa (5 isolates)
Klebsiella pneumoniae [2] = assay: microbe, parasite or virus in culture
Escherichia coli = assay: microbe, parasite or virus in culture; format: cell-based; conditions: for MIC50 fold change: Escherichia coli (5 isolates)
[3] = tested on: Acinetobacter baumannii-calcoaceticus complex; assay: microbe, parasite or virus in culture; format: cell-based; conditions: for MIC50 fold change: Acinetobacter spp. (5 isolates)
Staphylococcus aureus = assay: microbe, parasite or virus in culture; format: cell-based
Enterococcus faecium = assay: microbe, parasite or virus in culture; format: cell-based; conditions: for MIC50 fold change: Enterococcus faecium (3 isolates)
Streptococcus pneumoniae = assay: microbe, parasite or virus in culture; format: cell-based
Enterococcus faecalis = assay: microbe, parasite or virus in culture; format: cell-based; conditions: for MIC50 fold change: Enterococcus faecalis (2 isolates)
Klebsiella pneumoniae [4] = conditions: for MIC50 fold change: Klebsiella pneumoniae (5 isolates)

## C[C@H]1COc2c(N3CCN(C)CC3)c(F)cc3c(=O)c(C(=O)O)cn1c23 [Levofloxacin, reference compound]
[1]; B. cloacae species complex, Collection No. 1204419, non-MDR
  MIC: 0.03 µg/mL (≈ 0.083 µM)
[1]; Collection No. 1230117, non-MDR
  MIC: 0.015 µg/mL (≈ 0.0415 µM)
[1]; E. cloacae species complex, Collection No. 1197959, non-MDR
  MIC: 0.25 µg/mL (≈ 0.692 µM)
[1]; E. cloacae species complex, Collection No. 1230601, non-MDR
  MIC: 0.03 µg/mL (≈ 0.083 µM)
[1]; E. cloacae species complex, Collection No. 1232701, MDR
  MIC: 8 µg/mL (≈ 22.1 µM)
Pseudomonas aeruginosa; Pseudomonas aeruginosa ATCC 27853, QC
  MIC: 0.5 µg/mL (≈ 1.38 µM)
Pseudomonas aeruginosa; Pseudomonas aeruginosa, ATCC27853, Pseudomonas aeruginosa ATCC 27853, QC, read-out: MIC
  MIC: 1 µg/mL (≈ 2.77 µM)
Pseudomonas aeruginosa; Pseudomonas aeruginosa, Collection No. 1190985, non-MDR, read-out: MIC
  MIC: 0.25 µg/mL (≈ 0.692 µM)
Pseudomonas aeruginosa; Pseudomonas aeruginosa, Collection No. 1202638, MDR, read-out: MIC
  MIC: 16 µg/mL (≈ 44.3 µM)
Pseudomonas aeruginosa; Pseudomonas aeruginosa, Collection No. 1210081, non-MDR, read-out: MIC
  MIC: 0.5 µg/mL (≈ 1.38 µM)
Pseudomonas aeruginosa; Pseudomonas aeruginosa, Collection No. 1242554, non-MDR, read-out: MIC
  MIC: 0.5 µg/mL (≈ 1.38 µM)
Pseudomonas aeruginosa; Pseudomonas aeruginosa, Collection No. 1263496, MDR, read-out: MIC
  MIC: 0.25 µg/mL (≈ 0.692 µM)
Klebsiella pneumoniae [2]; ATCC700603, Klebsiella pneumoniae ATCC 700603, ESBL
  MIC: 1 µg/mL (≈ 2.77 µM)
Klebsiella pneumoniae [2]; BAA1705, Klebsiella pneumoniae ATCC BAA 1705, KPC
  MIC: 64 µg/mL (≈ 177 µM)
Klebsiella pneumoniae [2]; Collection No. 1230887, non-MDR
  MIC: 0.06 µg/mL (≈ 0.166 µM)
Klebsiella pneumoniae [2]; Collection No. 1236064, non-MDR
  MIC: 0.03 µg/mL (≈ 0.083 µM)
Escherichia coli; Escherichia coli, ATCC25922, Escherichia coli ATCC 25922, QC, read-out: MIC
  MIC: 0.015 µg/mL (≈ 0.0415 µM)
Escherichia coli; Escherichia coli, ATCCBAA2452, Escherichia coli ATCC BAA-2452, NDM-1, read-out: MIC
  MIC: 0.03 µg/mL (≈ 0.083 µM)
Escherichia coli; Escherichia coli, Collection No. 1191008, MDR, ESBL, read-out: MIC
  MIC: 32 µg/mL (≈ 88.6 µM)
Escherichia coli; Escherichia coli, Collection No. 1231795, MDR, ESBL, read-out: MIC
  MIC: 8 µg/mL (≈ 22.1 µM)
Escherichia coli; Escherichia coli, Collection No. 1232428, MDR (COL-R), ESBL, read-out: MIC
  MIC: 8 µg/mL (≈ 22.1 µM)
Escherichia coli; Escherichia coli, Collection No. 1248389, ESBL, read-out: MIC
  MIC: 8 µg/mL (≈ 22.1 µM)
[3]; Acinetobacter, ABC species complex, Collection No. 1204424, non-MDR, read-out: MIC
  MIC: 0.12 µg/mL (≈ 0.332 µM)
[3]; Acinetobacter, ABC species complex, Collection No. 1208060, non-MDR, read-out: MIC
  MIC: 0.06 µg/mL (≈ 0.166 µM)
[3]; Acinetobacter, ABC species complex, Collection No. 1215088, MDR, read-out: MIC
  MIC: 32 µg/mL (≈ 88.6 µM)
[3]; Acinetobacter, ABC species complex, Collection No. 1215098, MDR, read-out: MIC
  MIC: 16 µg/mL (≈ 44.3 µM)
[3]; Acinetobacter, ABC species complex, Collection No. 1216520, non-MDR, read-out: MIC
  MIC: 0.25 µg/mL (≈ 0.692 µM)
Staphylococcus aureus; Staphylococcus aureus, MRSA / USA300, Staphylococcus aureus, Collection No. 1124691, MRSA (USA300)/MDR, read-out: MIC
  MIC: 8 µg/mL (≈ 22.1 µM)
Staphylococcus aureus; Staphylococcus aureus, MRSA, Staphylococcus aureus, Collection No. 1189667, MRSA/MDR, read-out: MIC
  MIC: > 64 µg/mL
Staphylococcus aureus; Staphylococcus aureus, MRSA, Staphylococcus aureus, Collection No. 1189809, MRSA/MDR, read-out: MIC
  MIC: 32 µg/mL (≈ 88.6 µM)
Staphylococcus aureus; Staphylococcus aureus, MRSA, Staphylococcus aureus, Collection No. 1190388, MRSA, read-out: MIC
  MIC: 16 µg/mL (≈ 44.3 µM)
Staphylococcus aureus; Staphylococcus aureus, MRSA, Staphylococcus aureus, Collection No. 1221979, MRSA, read-out: MIC
  MIC: 1 µg/mL (≈ 2.77 µM)
Enterococcus faecium; Enterococcus faecium, Collection No. 1196024, VRE, read-out: MIC
  MIC: > 64 µg/mL
Enterococcus faecium; Enterococcus faecium, Collection No. 1208412, VRE
  MIC: >64 µg/mL
Enterococcus faecium; Enterococcus faecium, Collection No. 1222807, VSE, read-out: MIC
  MIC: 8 µg/mL (≈ 22.1 µM)
Streptococcus pneumoniae; ATCC49619, Streptococcus pneumoniae ATCC 49619, QC, read-out: MIC
  MIC: 0.5 µg/mL (≈ 1.38 µM)
Streptococcus pneumoniae; Streptococcus pneumoniae, Collection No. 1200385, PEN-S, read-out: MIC
  MIC: 1 µg/mL (≈ 2.77 µM)
Streptococcus pneumoniae; Streptococcus pneumoniae, Collection No. 1219456, PEN-R
  MIC: 1 µg/mL (≈ 2.77 µM)
Streptococcus pneumoniae; Streptococcus pneumoniae, Collection No. 1219876, PEN-R
  MIC: 1 µg/mL (≈ 2.77 µM)
Streptococcus pneumoniae; Streptococcus pneumoniae, Collection No. 1223661, PEN-R
  MIC: 1 µg/mL (≈ 2.77 µM)
Streptococcus pneumoniae; Streptococcus pneumoniae, Collection No. 1227224, PEN-S
  MIC: 1 µg/mL (≈ 2.77 µM)
Enterococcus faecalis; ATCC29212, Enterococcus faecalis ATCC 29212, QC, read-out: MIC
  MIC: 0.5 µg/mL (≈ 1.38 µM)
Enterococcus faecalis; Enterococcus faecalis, Collection No. 1204777, VRE, read-out: MIC
  MIC: 32 µg/mL (≈ 88.6 µM)
Enterococcus faecalis; Enterococcus faecalis, Collection No. 1211589, VRE
  MIC: 32 µg/mL (≈ 88.6 µM)

## CC[C@@H](C)[C@@H](NC(=O)[C@@H](CS)NC(=O)[C@@H](CCSC)NC(=O)[C@@H](CS)NC(=O)[C@@H](CCCNC(=N)N)NC(=O)[C@H](NC(=O)[C@H](NC(=O)[C@H](N)CCCNC(=N)N)[C@H](C)O)C(C)C)C(=O)O [P182 A, RTVRCMCI] (H-[dR][dT][dV][dR][dC][dM][dC][dI]-OH; N-terminus and C-terminus assumed)
Escherichia coli
  MIC: 16 µg/mL (≈ 16.3 µM)
[3]; -calcoaceticus complex
  MIC: 16 µg/mL (≈ 16.3 µM)
Enterococcus faecium
  MIC: 8 µg/mL (≈ 8.15 µM)
Streptococcus pneumoniae
  MIC: 32 µg/mL (≈ 32.6 µM)
Enterococcus faecalis
  MIC: 8 µg/mL (≈ 8.15 µM)

## CC[C@@H](C)[C@@H](NC(=O)[C@@H](CS)NC(=O)[C@@H](CCSC)NC(=O)[C@@H](CS)NC(=O)[C@@H](CCCNC(=N)N)NC(=O)[C@H](NC(=O)[C@H](NC(=O)[C@H](N)CCCNC(=N)N)[C@H](C)O)C(C)C)C(=O)O [P182 F, RTVRCMCI] (H-[dR][dT][dV][dR][dC][dM][dC][dI]-OH; N-terminus and C-terminus assumed)
[3]; -calcoaceticus complex
  MIC: 16 µg/mL (≈ 16.3 µM)
Enterococcus faecium
  MIC: 8 µg/mL (≈ 8.15 µM)
Streptococcus pneumoniae
  MIC: 32 µg/mL (≈ 32.6 µM)
Enterococcus faecalis
  MIC: 8 µg/mL (≈ 8.15 µM)

## CC[C@@H](C)[C@@H](NC(=O)[C@@H](CS)NC(=O)[C@@H](CCCNC(=N)N)NC(=O)[C@@H](CS)NC(=O)[C@@H](CCCNC(=N)N)NC(=O)[C@H](NC(=O)[C@@H](Cc1ccc(O)cc1)NC(=O)[C@H](N)CCCNC(=N)N)C(C)C)C(=O)O [P194 A, RYVRCRCI] (H-[dR][dY][dV][dR][dC][dR][dC][dI]-OH; N-terminus and C-terminus assumed)
[1]; species complex
  MIC50: 16 µg/mL (≈ 15 µM)
Klebsiella pneumoniae [4]
  MIC50: 4 µg/mL (≈ 3.74 µM)
Pseudomonas aeruginosa
  MIC50: 32 µg/mL (≈ 30 µM)
Escherichia coli
  MIC50: 8 µg/mL (≈ 7.49 µM)
[3]; -calcoaceticus complex
  MIC50: 4 µg/mL (≈ 3.74 µM)
Staphylococcus aureus
  MIC: 32 µg/mL (≈ 30 µM)
  MIC50: 32 µg/mL (≈ 30 µM)
Enterococcus faecium
  MIC: 2 µg/mL (≈ 1.87 µM)
  MIC50: 1 µg/mL (≈ 0.936 µM)
Streptococcus pneumoniae
  MIC50: 32 µg/mL (≈ 30 µM)
Enterococcus faecalis
  MIC: 4 µg/mL (≈ 3.74 µM)
  MIC50: 2 µg/mL (≈ 1.87 µM)

## CC[C@@H](C)[C@@H](NC(=O)[C@@H](CS)NC(=O)[C@@H](CCCNC(=N)N)NC(=O)[C@@H](CS)NC(=O)[C@@H](CCCNC(=N)N)NC(=O)[C@H](NC(=O)[C@@H](Cc1ccc(O)cc1)NC(=O)[C@H](N)CCCNC(=N)N)C(C)C)C(=O)O [P194 F, RYVRCRCI] (H-[dR][dY][dV][dR][dC][dR][dC][dI]-OH; N-terminus and C-terminus assumed)
Enterococcus faecium
  MIC: 4 µg/mL (≈ 3.74 µM)
Streptococcus pneumoniae
  MIC: 32 µg/mL (≈ 30 µM)
Enterococcus faecalis
  MIC: 8 µg/mL (≈ 7.49 µM)

## ATVRCTCI [Peptide D8-R1A]
[1]; relative to D8-acetate
  MIC50 fold change: 2
Klebsiella pneumoniae [4]; relative to D8-acetate
  MIC50 fold change: 4
Pseudomonas aeruginosa; relative to D8-acetate
  MIC50 fold change: 2
Escherichia coli; relative to D8-acetate
  MIC50 fold change: 4
[3]; relative to D8-acetate
  MIC50 fold change: 4
Enterococcus faecium; relative to D8-acetate
  MIC50 fold change: 2
Enterococcus faecalis; relative to D8-acetate
  MIC50 fold change: 2

## AYVRCRCI [Peptide P194-R1A]
[1]; relative to P194-acetate
  MIC50 fold change: 0.5
Klebsiella pneumoniae [4]; relative to P194-acetate
  MIC50 fold change: 1
Pseudomonas aeruginosa; relative to P194-acetate
  MIC50 fold change: 1
Escherichia coli; relative to P194-acetate
  MIC50 fold change: 0.5
[3]; relative to P194-acetate
  MIC50 fold change: 1
Staphylococcus aureus; relative to P194-acetate, Staphylococcus aureus (5 isolates)
  MIC50 fold change: 0.5
Enterococcus faecium; relative to P194-acetate
  MIC50 fold change: 2
Streptococcus pneumoniae; relative to P194-acetate, Streptococcus pneumoniae (5 isolates)
  MIC50 fold change: 1
Enterococcus faecalis; relative to P194-acetate
  MIC50 fold change: 1
